# From PMC8400955 (Pharmaceuticals, 2021)
# Several values for one entry are separate records, joined by “and”; a condition that tells them apart may be missing. Equal values may be shown once. Read-outs that look alike come from different tables or passages of the source.
# Columns and labels:
# [1] = biological target: CYP2A6 (Homo sapiens, UniProt P11509); test: CYP phenotyping, recombinant CYP2A6
# Protocol: (§3) Bactosomes prepared from E. coli that heterologously expressed individual human CYP isoforms together with human CYP reductase were obtained from CYPEX LTD (Scotland, UK), and stored at −80 °C prior to use. […] Timepoints were taken at 0, 5, 10, 15, 20, and 30 min. Substrate disappearance was used to calculate intrinsic clearance (Clint) and half-life (t1/2). All incubations were performed in triplicate. […] The chemical inhibitors for CYP1A2, 2A6, 2B6, 2C8, 2C9, 2C19, 2D6, and 3A4 were furafylline, tranylcypromine, ticlopidine, montelukast, sulfaphenazole, N-3-benzylnirvanol, quinidine, and ketoconazole, respectively. Timepoints were collected at 0, 15, 30, 45, and 60 min, and the remaining percentage of the parent drug at each timepoint was calculated (the calculation details are available in the Supplementary Materials). All incubations were performed in triplicate.
# (§4) 1.3.1 Intrinsic Clearance (Heterologously Expressed Human Cytochrome P450) All calculations were carried out using Microsoft Excel. The slope, k, was determined by linear regression of the natural logarithm of percent parent disappearance vs. incubation time curve. Peak areas for test article and internal standard were determined from extracted ion chromatograms. The peak area ratio was used to calculated for the results.
# (§5) The half-life value (t1/2 rCYPi) was determined from the slope value: […]
# [2] = system: rat plasma proteins; test: Plasma protein binding by equilibrium dialysis, rat; format: in vitro ADME; settings: for Remaining: 6 h
# Protocol: (§1) The in vitro binding of ZB716 to plasma proteins was determined by equilibrium dialysis technique in mouse, rat, dog, monkey, and human plasma (EDTA-K2 as anticoagulant), over the concentration range of 0.1–10 μM. The free concentration of ZB716 was below the lower limit of quantitation at 0.1, 1, and 10 μM in human, monkey, dog, rat, and mouse plasma.
# (§2) The equilibrium dialysis method was used to investigate the in vitro binding of ZB716 to human, monkey, dog, rat, and mouse plasma proteins. The dialysis phosphate buffer solution (100 mM, pH 7.4) and plasma samples containing 0.1, 1, and 10 μM of ZB716 were added to separate chambers of dialysis wells of the HTDialysis device. The dialysis plate was placed in an incubator at 37 °C with 5% CO2 at approximately 100 rpm for 6 h. After incubation, the seal was removed, and 50 μL each of post-dialysis samples was pipetted from both the buffer and plasma chambers into fresh 96-well plates. The samples were analyzed via UPLC–MS/MS. The bound fraction, unbound fraction, recovery (%), and remaining (%) were calculated by Equations (2)–(5):%Unbound = (Conc.buffer chamber/Conc.plasma chamber) × 100(2) %Bound = 100% − %Unbound (3) %Recovery = (Conc.buffer chamber + Conc.plasma chamber)/Conc.Total sample × 100 (4) %Remaining = Conc.6h/Conc.0h × 100 (5)
# [3] = as above; format: in vitro ADME; settings: plasma (EDTA-K2 as anticoagulant)
# Protocol: as §1, §2
# [4] = biological target: T1, CYP2C8 (Homo sapiens, UniProt P10632); test: CYP phenotyping, recombinant CYP2C8
# T1 sequence (P10632 1-490): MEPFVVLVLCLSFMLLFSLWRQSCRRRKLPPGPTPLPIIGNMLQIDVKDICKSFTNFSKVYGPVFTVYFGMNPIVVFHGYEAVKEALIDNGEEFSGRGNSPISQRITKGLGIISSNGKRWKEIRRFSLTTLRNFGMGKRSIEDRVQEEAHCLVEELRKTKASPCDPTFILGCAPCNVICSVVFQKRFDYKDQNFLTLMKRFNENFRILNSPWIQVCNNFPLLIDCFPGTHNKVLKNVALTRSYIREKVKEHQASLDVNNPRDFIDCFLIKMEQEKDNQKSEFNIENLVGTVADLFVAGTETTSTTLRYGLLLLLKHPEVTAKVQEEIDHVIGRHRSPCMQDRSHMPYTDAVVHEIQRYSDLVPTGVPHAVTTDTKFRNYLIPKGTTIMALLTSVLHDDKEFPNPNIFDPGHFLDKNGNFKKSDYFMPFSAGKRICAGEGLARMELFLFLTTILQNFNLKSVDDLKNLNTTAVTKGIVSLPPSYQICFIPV
# Protocol: as §3, §4, §5
# [5] = Single-dose PK and bioavailability of ZB716 in rats; format: in vivo; settings: Sprague Dawley, rat, plasma; for bioavailability: PO 6 mg/kg/day vs IV 2 mg/kg/day
# [6] = biological target: CYP3A5 (Homo sapiens, UniProt P20815); test: CYP phenotyping, recombinant CYP3A5
# Chain of CYP3A5 (P20815 whole entry): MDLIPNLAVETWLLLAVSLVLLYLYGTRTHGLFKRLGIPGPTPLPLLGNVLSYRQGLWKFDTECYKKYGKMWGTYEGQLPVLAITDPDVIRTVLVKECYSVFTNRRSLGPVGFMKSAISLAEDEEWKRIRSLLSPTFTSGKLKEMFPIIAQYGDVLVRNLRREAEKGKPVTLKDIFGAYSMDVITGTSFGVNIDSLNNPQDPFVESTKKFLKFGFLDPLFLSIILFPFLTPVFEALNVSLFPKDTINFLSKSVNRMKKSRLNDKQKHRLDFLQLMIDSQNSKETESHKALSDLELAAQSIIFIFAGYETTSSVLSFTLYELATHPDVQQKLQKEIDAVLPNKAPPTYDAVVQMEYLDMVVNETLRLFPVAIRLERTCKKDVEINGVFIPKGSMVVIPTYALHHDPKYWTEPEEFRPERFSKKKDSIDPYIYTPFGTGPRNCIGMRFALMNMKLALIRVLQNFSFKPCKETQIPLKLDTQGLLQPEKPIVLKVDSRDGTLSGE
# Protocol: as §3
# The slope, k, was determined by linear regression of the natural logarithm of percent parent disappearance vs. incubation time curve. Peak areas for test article and internal standard were determined from extracted ion chromatograms. The peak area ratio was used to calculated for the results.
# The half-life value (t1/2 rCYPi) was determined from the slope value:
# Conversion of the t1/2 rCYPi (in min) into the intrinsic clearance (Clint rCYPi in μL/min/pmol) was done using the following equation:
# 1.3.2 For inhibition ratio (%) (Liver microsomes with and without inhibitors) The slope value, k, was determined by linear regression of the natural logarithm of the remaining percentage of the parent drug vs. incubation time curve. If the turnover was not significant (T-test with p<0.05 was not obtained) and the percentage remaining at last time point was ≥ 80%, the k value was
# [7] = system: CYP2B6; test: CYP induction (enzyme activity) in cryopreserved human hepatocytes, CYP2B6; settings: for fold induction at 72 h, 0.15 µM / fold induction at 72 h, 1.5 µM / fold induction at 72 h, 5 µM / fold induction at 72 h, 15 µM: human, plated cryopreserved human hepatocytes
# Protocol: The UPLC–MS/MS (SHIMADZU, LC-30AD) equipped with waters Xselect®HSS T3 2.5 μm (2.1 × 50 mm) was used to detect the marker metabolites in the enzyme activity assay. The fold-induction enzyme activity was determined using the ratio calculation (the calculation details are available in the Supplementary Materials).
# CYP activity was expressed as pmol/min/million cells where pmol was defined as the amount of metabolite formed during the reaction. […] The fold-induction enzyme activity was determined by the ratio:
# Fold of induction = CYP activity(induced) / CYP activity(vehicle)
# % of positive control = (𝑪𝒀𝑷 𝒂𝒄𝒕𝒊𝒗𝒊𝒕𝒚(𝒊𝒏𝒅𝒖𝒄𝒆𝒅)ି 𝑪𝒀𝑷 𝒂𝒄𝒕𝒊𝒗𝒊𝒕𝒚(𝑫𝑴𝑺𝑶))(𝑪𝒀𝑷 𝒂𝒄𝒕𝒊𝒗𝒊𝒕𝒚(𝒑𝒐𝒔𝒊𝒕𝒊𝒗𝒆 𝒄𝒐𝒏𝒕𝒓𝒐𝒍)ି 𝑪𝒀𝑷 𝒂𝒄𝒕𝒊𝒗𝒊𝒕𝒚(𝑫𝑴𝑺𝑶))х 𝟏𝟎𝟎 Based on the enzyme activity, a minimum of 2-fold increase of a response compared to vehicle control and ≥ 20% of the positive control was considered as the cutoff for a positive signal in in vitro induction
# [8] = Plasma protein binding by equilibrium dialysis, mouse; format: in vitro ADME; settings: plasma (EDTA-K2 as anticoagulant)
# Protocol: as §1, §2
# [9] = system: mouse plasma proteins; test: as above; format: in vitro ADME; settings: for Remaining: 6 h
# Protocol: as §1, §2
# [10] = female, single dose, IV 2 mg/kg/day, F
# [11] = female, single dose, PO 6 mg/kg/day, F
# [12] = female, single dose, PO 30 mg/kg/day, F
# [13] = female, single dose, PO 100 mg/kg/day, F
# [14] = female, single dose, PO 400 mg/kg/day, F
# [15] = male, single dose, IV 2 mg/kg/day, M
# [16] = male, single dose, PO 6 mg/kg/day, M
# [17] = male, single dose, PO 30 mg/kg/day, M
# [18] = male, single dose, PO 100 mg/kg/day, M
# [19] = male, single dose, PO 400 mg/kg/day, M
# Chain of CYP2A6 (P11509 whole entry): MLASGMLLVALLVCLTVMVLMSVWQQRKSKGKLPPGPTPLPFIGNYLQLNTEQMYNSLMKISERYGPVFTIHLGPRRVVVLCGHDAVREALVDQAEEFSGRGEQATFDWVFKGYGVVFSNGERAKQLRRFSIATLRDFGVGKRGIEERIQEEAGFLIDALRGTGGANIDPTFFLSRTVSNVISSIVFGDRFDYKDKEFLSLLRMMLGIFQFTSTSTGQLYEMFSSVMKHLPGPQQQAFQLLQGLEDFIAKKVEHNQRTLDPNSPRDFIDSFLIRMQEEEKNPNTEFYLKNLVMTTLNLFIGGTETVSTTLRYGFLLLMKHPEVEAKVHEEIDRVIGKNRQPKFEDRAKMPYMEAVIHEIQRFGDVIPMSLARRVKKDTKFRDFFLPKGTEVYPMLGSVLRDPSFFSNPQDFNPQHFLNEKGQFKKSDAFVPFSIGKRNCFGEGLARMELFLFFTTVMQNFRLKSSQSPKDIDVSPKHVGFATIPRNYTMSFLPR
smiles,measurement,setting,value
"C[C@]12CC[C@@H]3c4ccc(B(O)O)cc4C[C@@H](CCCCCCCCC[S+]([O-])CCCC(F)(F)C(F)(F)F)[C@H]3[C@@H]1CC[C@@H]2O (some centres unmarked) [ZB716, fulvestrant-3-boronic acid]",half-life at 2 µM,[1]; human,16.6 ± 0.6 min
same,Clint,"[1]; recombinant CYP2A6, 2 µM ZB716",0.836 ± 0.028 µL/min/pmol CYP
same,Bound,[2]; 0.1 μM,>97.7%
same,Unbound,[2]; 0.1 μM,<2.35%
same,Remaining,[2]; 0.1 μM,83.9 ± 8.2%
same,Bound,[2]; 1 μM,>99.8%
same,Unbound,[2]; 1 μM,<0.216%
same,Remaining,[2]; 1 μM,91.1 ± 2.1%
same,Bound,[2]; 10 μM,>99.97%
same,Unbound,[2]; 10 μM,<0.0281%
same,Remaining,[2]; 10 μM,84.7 ± 2.0%
same,"recovery at 6 h, 0.1 μM","[3]; pH 7.4, 0.1 μM",< 94.4%
same,"recovery at 6 h, 1 μM","[3]; pH 7.4, 1 μM",< 94.9%
same,"recovery at 6 h, 10 μM","[3]; pH 7.4, 10 μM",< 82.1%
same,half-life at 2 µM,[4]; human,11.1 ± 1.2 min
same,Clint,"[4]; recombinant CYP2C8, 2 µM ZB716",1.25 ± 0.14 µL/min/pmol CYP
same,Tmax,"[5]; both sexes, single oral administration, mostly, post-dose, read-out: Tmax",30 to 120 min
same,bioavailability,"[5]; female, F",5.98%
same,AUC(0-t),[5]; [10],6440 ng·h/mL
same,Cmax,[5]; [10],4530 ng/mL
same,Tmax,"[5]; female, single dose, IV 2 mg/kg/day, F, read-out: Tmax (median)",5 min
same,AUC(0-t),[5]; [11],1160 ng·h/mL
same,Cmax,[5]; [11],347 ng/mL
same,Tmax,"[5]; female, single dose, PO 6 mg/kg/day, F, read-out: Tmax (median)",30 min
same,AUC(0-t),[5]; [12],15700 ng·h/mL
same,Cmax,[5]; [12],3520 ng/mL
same,Tmax,"[5]; female, single dose, PO 30 mg/kg/day, F, read-out: Tmax (median)",60 min
same,AUC(0-t),[5]; [13],30500 ng·h/mL
same,Cmax,[5]; [13],3590 ng/mL
same,Tmax,"[5]; female, single dose, PO 100 mg/kg/day, F, read-out: Tmax (median)",30 min
same,AUC(0-t),[5]; [14],55600 ng·h/mL
same,Cmax,[5]; [14],4310 ng/mL
same,Tmax,"[5]; female, single dose, PO 400 mg/kg/day, F, read-out: Tmax (median)",60 min
same,bioavailability,"[5]; male, M",6.36%
same,AUC(0-t),[5]; [15],4910 ng·h/mL
same,Cmax,[5]; [15],5370 ng/mL
same,Tmax,"[5]; male, single dose, IV 2 mg/kg/day, M, read-out: Tmax (median)",5 min
same,AUC(0-t),[5]; [16],936 ng·h/mL
same,Cmax,[5]; [16],321 ng/mL
same,Tmax,"[5]; male, single dose, PO 6 mg/kg/day, M, read-out: Tmax (median)",30 min
same,AUC(0-t),[5]; [17],5410 ng·h/mL
same,Cmax,[5]; [17],1720 ng/mL
same,Tmax,"[5]; male, single dose, PO 30 mg/kg/day, M, read-out: Tmax (median)",120 min
same,AUC(0-t),[5]; [18],12500 ng·h/mL
same,Cmax,[5]; [18],3010 ng/mL
same,Tmax,"[5]; male, single dose, PO 100 mg/kg/day, M, read-out: Tmax (median)",30 min
same,AUC(0-t),[5]; [19],32600 ng·h/mL
same,Cmax,[5]; [19],2860 ng/mL
same,Tmax,"[5]; male, single dose, PO 400 mg/kg/day, M, read-out: Tmax (median)",30 min
same,half-life at 2 µM,[6]; human,2.06 ± 0.33 min
same,Clint,"[6]; recombinant CYP3A5, 2 µM ZB716",6.86 µL/min/pmol CYP and 6.86 ± 1.12 µL/min/pmol CYP
same,induction fold compared to the vehicle control,"[7]; all three donors, 1.5–15 μM",2.98–6.40
same,induction percentage of the positive control,"[7]; all three donors, 1.5–15 μM",37.4–92.1%
same,Percent of Control,"[7]; donor one, 0.15 µM",2.22%
same,Percent of Control,"[7]; donor one, 1.5 µM",17.2%
same,Percent of Control,"[7]; donor one, 5 µM",70.6%
same,Percent of Control,"[7]; donor one, 15 µM",73.0%
same,Percent of Control,"[7]; donor three, 0.15 µM",2.61%
same,Percent of Control,"[7]; donor three, 1.5 µM",39.2%
same,Percent of Control,"[7]; donor three, 5 µM",37.4%
same,Percent of Control,"[7]; donor three, 15 µM",4.18%
same,Percent of Control,"[7]; donor two, 0.15 µM",3.16%
same,Percent of Control,"[7]; donor two, 1.5 µM",19.8%
same,Percent of Control,"[7]; donor two, 5 µM",71.7%
same,Percent of Control,"[7]; donor two, 15 µM",92.1%
same,"fold induction at 72 h, 0.15 µM","[7]; donor one, 0.15 µM",1.1 ± 0.05
same,"fold induction at 72 h, 1.5 µM","[7]; donor one, 1.5 µM",1.77 ± 0.13
same,"fold induction at 72 h, 5 µM","[7]; donor one, 5 µM",4.14 ± 0.06
same,"fold induction at 72 h, 15 µM","[7]; donor one, 15 µM",4.24 ± 0.47
same,"fold induction at 72 h, 0.15 µM","[7]; donor three, 0.15 µM",1.14 ± 0.09
same,"fold induction at 72 h, 1.5 µM","[7]; donor three, 1.5 µM",3.07 ± 0.36
same,"fold induction at 72 h, 5 µM","[7]; donor three, 5 µM",2.98 ± 0.74
same,"fold induction at 72 h, 15 µM","[7]; donor three, 15 µM",1.22 ± 0.42
same,"fold induction at 72 h, 0.15 µM","[7]; donor two, 0.15 µM",1.19 ± 0.1
same,"fold induction at 72 h, 1.5 µM","[7]; donor two, 1.5 µM",2.16 ± 0.07
same,"fold induction at 72 h, 5 µM","[7]; donor two, 5 µM",5.21 ± 0.24
same,"fold induction at 72 h, 15 µM","[7]; donor two, 15 µM",6.4 ± 0.16
same,"recovery at 6 h, 0.1 μM","[8]; pH 7.4, 0.1 μM",< 96%
same,"recovery at 6 h, 1 μM","[8]; pH 7.4, 1 μM",< 88.8%
same,"recovery at 6 h, 10 μM","[8]; pH 7.4, 10 μM",< 95%
same,Bound,[9]; 0.1 μM,>97.4%
same,Unbound,[9]; 0.1 μM,<2.63%
same,Remaining,[9]; 0.1 μM,98.5 ± 14.5%
same,Bound,[9]; 1 μM,>99.7%
same,Unbound,[9]; 1 μM,<0.266%
same,Remaining,[9]; 1 μM,92.2 ± 5.7%
same,Bound,[9]; 10 μM,>99.97%
same,Unbound,[9]; 10 μM,<0.0272%
same,Remaining,[9]; 10 μM,97.4 ± 10.7%
